These results are taken from patent publication US20070207175A1, “Biaromatic compound activators of PPARgamma receptors and cosmetic/pharmaceutical compositions comprised thereof” (GALDERMA RESEARCH & DEVELOPMENT, priority 2004, published 2007).

Common to all, as to format: cell-based
One test has as its target T1, PPARγ (Homo sapiens, UniProt P37231).
T1 sequence (P37231 238-505 limits assumed): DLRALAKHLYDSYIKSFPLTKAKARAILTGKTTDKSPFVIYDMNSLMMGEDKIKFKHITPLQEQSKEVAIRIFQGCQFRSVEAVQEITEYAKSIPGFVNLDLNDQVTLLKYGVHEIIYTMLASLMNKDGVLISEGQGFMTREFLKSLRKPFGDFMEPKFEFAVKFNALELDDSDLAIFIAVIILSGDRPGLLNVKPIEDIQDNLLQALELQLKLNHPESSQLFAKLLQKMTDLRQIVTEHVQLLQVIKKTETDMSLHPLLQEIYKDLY
The test can be described thus: Crossed-curve PPAR transactivation assay (PPARγ). The note with it: HeLN cells stably transfected with Gal-hPPARγ and luciferase reporter; Schild regression against reference agonist; n.a. means not active; read-out: PPARγ Kdapp. The procedure: (§1) Activation of the PPAR receptors by an agonist (activator) in HeLN cells leads to the expression of a reporter gene, luciferase, which, in the presence of a substrate, generates light. The modulation of the PPAR receptors is measured by quantifying the luminescence produced after incubation of the cells in the presence of a reference agonist. The ligands will displace the agonist from its site. The measurement of the activity is performed by quantifying the light produced. This measurement makes it possible to determine the modulatory activity of the compounds according to the invention by the determination of the constant which is the affinity of the molecule for the PPAR receptor. Since this value can fluctuate depending on the basal activity and the expression of the receptor, it is referred to as apparent Kd (Kdapp in nM).
(§2) To determine this constant, “crossed curves” for the test product, against a reference agonist, are prepared using a 96-well plate: 10 concentrations of the test product plus a concentration 0 are arranged in a line, and 7 concentrations of the agonist plus a concentration 0 are arranged in a column. This is 88 measurement points for 1 product and 1 receptor. The remaining 8 wells are used for repeatability controls.
(§3) Measurements are also taken for total agonist controls with the same products.
(§4) The HeLN cell lines used are stable transfectants containing the plasmids ERE-βGlob-Luc-SV-Neo (reporter gene) and PPAR (α, δ, γ) Gal-hPPAR. These cells are seeded in 96-well plates at the rate of 10,000 cells per well in 100 μl of DMEM medium without phenol red and supplemented with 10% of defatted calf serum. The plates are then incubated for 16 hours at 37° C. and 7% CO2.
(§5) The various dilutions of the test products and of the reference ligand are added at the rate of 5 μl per well. The plates are subsequently incubated for 18 hours at 37° C. and 7% CO2. The culture medium is removed by turning over and 100 μl of a 1:1 PBS/luciferin mixture are added to each well. After 5 minutes, the plates are read using the luminescence reader.
(In general: Reporter assays use an easily measured gene product as a stand-in for the process of interest.)

The target in another test is T2, PPARα (Homo sapiens, UniProt Q07869).
T2 sequence (Q07869 200-468 limits assumed): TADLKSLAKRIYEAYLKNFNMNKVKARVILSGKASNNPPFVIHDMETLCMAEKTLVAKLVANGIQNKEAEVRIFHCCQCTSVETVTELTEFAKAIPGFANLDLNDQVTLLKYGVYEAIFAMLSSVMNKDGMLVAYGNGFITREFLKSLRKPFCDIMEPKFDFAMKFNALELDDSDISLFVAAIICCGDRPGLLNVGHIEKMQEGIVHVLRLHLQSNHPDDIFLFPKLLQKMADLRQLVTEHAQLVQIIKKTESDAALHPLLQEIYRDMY
As to the kind of experiment: Crossed-curve PPAR transactivation assay (PPARα). The note with it: HeLN cells stably transfected with Gal-hPPARα and luciferase reporter; Schild regression against reference agonist; n.a. means not active; read-out: PPARα Kdapp. Here is the method:
as §1
To determine this constant, “crossed curves” for the test product, against a reference agonist, are prepared using a 96-well plate: 10 concentrations of the test product plus a concentration 0 are arranged in a line, and 7 concentrations of the agonist plus a concentration 0 are arranged in a column. This is 88 measurement points for 1 product and 1 receptor. […]
The various dilutions of the test products and of the reference ligand are added at the rate of 5 μl per well. […] After 5 minutes, the plates are read using the luminescence reader.

A further test addresses T3, PPARδ (Homo sapiens, UniProt Q03181).
T3 sequence (Q03181 211-441 limits assumed): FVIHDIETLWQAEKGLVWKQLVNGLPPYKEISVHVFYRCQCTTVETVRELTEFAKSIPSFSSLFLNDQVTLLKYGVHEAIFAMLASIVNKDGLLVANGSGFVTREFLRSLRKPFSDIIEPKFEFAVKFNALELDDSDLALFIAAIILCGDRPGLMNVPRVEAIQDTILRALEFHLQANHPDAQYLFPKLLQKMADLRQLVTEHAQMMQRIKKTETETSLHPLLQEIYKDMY
The test can be described thus: Crossed-curve PPAR transactivation assay (PPARδ). The note with it: HeLN cells stably transfected with Gal-hPPARδ and luciferase reporter; Schild regression against reference agonist; n.a. means not active; read-out: PPARδ Kdapp. The procedure:
as §1, §2, §3, §4, §5

Structures are written as SMILES.

Regarding `CCCCCCCC(=O)N(C)Cc1cccc(-c2ccc(/C=C/C(=O)O)cc2)c1` [Example 1, 3-(3′-[((methyl)(octanoyl)amino)methyl]biphenyl-4-yl)acrylic acid], at PPARγ, the Kd came to 0.5 µM.

Consider `CCCCCCCC(=O)N(C)Cc1cccc(-c2ccc(CCC(=O)O)cc2)c1` [Example 2, 3-{3′-[((methyl)(octanoyl)amino)methyl]biphenyl-4-yl}propanoic acid], for which the Kd on PPARγ worked out at 0.12 µM.

With `CCCCCCCC(=O)N(C)Cc1cccc(-c2ccc(/C=C/C(=O)O)c(F)c2)c1` [Example 3, 3-{3-fluoro-3′-[((methyl)(octanoyl)amino)methyl]biphenyl-4-yl}acrylic acid], the Kd at PPARγ is 0.06 µM.

Turning to `CCCCCCCC(=O)N(C)Cc1cccc(-c2ccc(CCC(=O)O)c(F)c2)c1` [Example 4, 3-[3-fluoro-3′-[((methyl)(octanoyl)amino)methyl]biphenyl-4-yl)propanoic acid], the Kd on PPARγ is 0.25 µM.

Turning to `CCCCCCCC(=O)NCc1cccc(-c2ccc(CCC(=O)O)cc2)c1` [Example 6, 3-[3′-((octanoylamino)methyl)biphenyl-4-yl]propanoic acid], the Kd on PPARγ is 4 µM.

Turning to `CCCCCCCC(=O)N(C)Cc1cccc(-c2ccc(CCC(=O)O)c(O)c2)c1` [Example 7, 3-{3-hydroxy-3′-[((methyl)(octanoyl)amino)methyl]biphenyl-4-yl}propanoic acid], at PPARγ, the Kd came to 4 µM.

With `CCCCCCCC(=O)N(C)Cc1cccc(-c2ccc(CCC(=O)O)cc2OCCCC)c1` [Example 8, 3-{2-butoxy-3′-[((methyl)(octanoyl)amino)methyl]biphenyl-4-yl}propanoic acid], the Kd at PPARγ came out at 0.001 µM.

For `CCCCCC(=O)N(C)Cc1cccc(-c2ccc(CCC(=O)O)cc2OCCCC)c1` [Example 9, 3-{2-butoxy-3′-[((hexanoyl)(methyl)amino)methyl]biphenyl-4-yl}propanoic acid], the figures for the Kd on PPARα, on PPARγ and on PPARδ were 4 µM, 0.004 µM and 4 µM, respectively.

For `CCCCOc1cc(CCC(=O)O)ccc1-c1cccc(CN(C)C(=O)CCCC)c1` [Example 10, 3-{2-butoxy-3′-[((methyl)(pentanoyl)amino)methyl]biphenyl-4-yl}propanoic acid], the figures for the Kd at PPARγ and on PPARδ were 0.004 µM and 4 µM, respectively.

Regarding `CCCCCCC(=O)N(C)Cc1cccc(-c2ccc(CCC(=O)O)cc2OCCCC)c1` [Example 11, 3-{2-butoxy-3′-[((heptanoyl)(methyl)amino)methyl]biphenyl-4-yl}propanoic acid], the Kd at PPARα worked out at 0.5 µM; at PPARγ it was 0.001 µM; at PPARδ, 4 µM.

Turning to `CCCCOc1cc(CCC(=O)O)ccc1-c1cccc(CN(C)C(=O)c2ccc(OCC)cc2)c1` [Example 12, 3-(2-butoxy-3′-{[(4-ethoxybenzoyl)(methyl)amino]methyl}biphenyl-4-yl)propanoic acid], the Kd at PPARγ is 0.00025 µM.

For the compound `CCCCOc1ccc(C(=O)N(C)Cc2cccc(-c3ccc(CCC(=O)O)cc3OCCCC)c2)cc1` [Example 13, 3-(2-butoxy-3′-{[(4-butoxybenzoyl)(methyl)amino]methyl}biphenyl-4-yl)propanoic acid], on PPARγ, the Kd came out at 0.001 µM.

With `CCCCOc1cc(CCC(=O)O)ccc1-c1cccc(CN(C)C(=O)c2ccccc2)c1` [Example 14, 3-{3′-[((benzoyl)(methyl)amino)methyl]-2-butoxybiphenyl-4-yl}propanoic acid], the Kd at PPARγ came to 0.008 µM.

On to `CCCCOc1cc(CCC(=O)O)ccc1-c1cccc(CN(C)C(=O)c2ccc(OC)cc2)c1` [Example 15, 3-(2-butoxy-3′-{[(4-methoxybenzoyl)(methyl)amino]methyl}biphenyl-4-yl)propanoic acid], for which the Kd on PPARγ came out at 0.0005 µM; on PPARδ, 4 µM.

`CCCCOc1cc(CCC(=O)O)ccc1-c1cccc(CN(C)C(=O)c2cccc(OC)c2)c1` [Example 16, 3-(2-butoxy-3′-{[(3-methoxybenzoyl)(methyl)amino]methyl}biphenyl-4-yl)propanoic acid]: the Kd on PPARγ stood at 0.004 µM; on PPARδ, 4 µM.
